Measurements from ChEMBL document CHEMBL4742387, “Condensed tricyclic compounds as protein kinase inhibitors” (2018).
The source made the active and inactive calls. No cut-off for these calls is given here.

Experiments:
DU-145 [1] = test: Antiproliferative activity against human DU-145 cells assessed as reduction in cell proliferation by CellTiter-Glo luminescent cell viability assay; format: functional
DU-145 [2] = test: Synergistic antiproliferative activity against human DU-145 cells assessed as reduction in cell proliferation by measuring combination index in presence of crizotinib by MTT assay; format: functional
SW-620 [3] = test: Induction of apoptosis in human SW-620 cells at 0.5 to 5 uM incubated for 24 hrs by propidium iodide staining based assay; format: functional, cell-based; details: dose 0.5-5 µM
A549 [4] = test: Synergistic antiproliferative activity against human A549 cells assessed as reduction in cell proliferation by measuring combination index in presence of Elesclomol by MTT assay; format: functional
[5] = biological target: T1, Serine/threonine-protein kinase haspin (Homo sapiens, UniProt Q8TF76); test: Inhibition of haspin in human SW620 cells assessed as reduction in IFNgamma-induced H3T3 phosphorylation pre-incubated for 1 hr before IFNgamma stimulation for 3 hrs by Western blot analysis; format: cell-based, SW-620
T1 sequence (Q8TF76 whole entry): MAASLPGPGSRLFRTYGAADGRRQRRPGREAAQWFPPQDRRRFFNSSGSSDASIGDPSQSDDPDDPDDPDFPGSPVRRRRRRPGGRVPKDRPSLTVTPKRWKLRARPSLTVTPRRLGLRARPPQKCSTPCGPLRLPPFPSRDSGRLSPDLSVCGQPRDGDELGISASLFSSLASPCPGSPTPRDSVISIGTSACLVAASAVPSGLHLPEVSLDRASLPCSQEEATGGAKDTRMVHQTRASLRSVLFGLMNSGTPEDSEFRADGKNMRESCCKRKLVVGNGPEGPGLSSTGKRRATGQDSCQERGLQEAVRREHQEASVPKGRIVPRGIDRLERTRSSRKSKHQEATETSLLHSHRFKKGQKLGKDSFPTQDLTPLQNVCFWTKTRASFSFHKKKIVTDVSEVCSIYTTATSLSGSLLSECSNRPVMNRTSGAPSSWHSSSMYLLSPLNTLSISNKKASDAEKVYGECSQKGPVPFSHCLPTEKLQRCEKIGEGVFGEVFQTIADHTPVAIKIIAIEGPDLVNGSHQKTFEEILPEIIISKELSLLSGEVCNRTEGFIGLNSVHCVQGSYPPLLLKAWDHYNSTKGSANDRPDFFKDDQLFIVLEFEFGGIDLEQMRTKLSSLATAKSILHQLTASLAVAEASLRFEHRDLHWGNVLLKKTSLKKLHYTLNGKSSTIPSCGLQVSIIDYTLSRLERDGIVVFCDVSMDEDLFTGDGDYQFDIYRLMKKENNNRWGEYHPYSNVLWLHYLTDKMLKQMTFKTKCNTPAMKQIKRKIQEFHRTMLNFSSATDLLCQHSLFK

Mus musculus [6] = test: Inhibition of CDK8 in athymic nude mouse xenografted with human SW-620 cells assessed as reduction in STAT1 S727 phosphorylation 5 mg/kg, po administered as single dose after 4 hrs by Western blot analysis; format: functional, organism-based
DU-145 [7] = test: Synergistic antiproliferative activity against human DU-145 cells assessed as reduction in cell proliferation by measuring combination index in presence of Ali-sertib by MTT assay; format: functional
SW-620 [8] = test: Inhibition of colony formation of human SW-620 cells incubated for 11 days (Every 3 days medium is changed by fresh medium and compounds were added freshly) by crystal violet staining based assay; format: functional, cell-based
MV4-11 = test: Antiproliferative activity against human MV4-11 cells assessed as reduction in cell proliferation by CellTiter-Glo luminescent cell viability assay; format: functional; details: Homo sapiens, MV4-11
SK-MEL19 [9] = test: Antiproliferative activity against human SK-MEL19 cells assessed as reduction in cell proliferation by CellTiter-Glo luminescent cell viability assay; format: functional
SW-620 [10] = test: Synergistic antiproliferative activity against human SW-620 cells assessed as reduction in cell proliferation by measuring combination index in presence of Ali-sertib by MTT assay; format: functional
SW-620 [11] = test: Synergistic antiproliferative activity against human SW-620 cells assessed as reduction in cell proliferation by measuring combination index in presence of oxaliplatin by MTT assay; format: functional
[12] = biological target: T2, Serine/threonine-protein kinase haspin (Homo sapiens) (UniProt Q8TF76); test: Inhibition of haspin in synchronized human SW620 cells assessed as reduction in IFNgamma-induced H3T3 phosphorylation pre-incubated for 1 hr before IFNgamma stimulation for 3 hrs by Western blot analysis; format: cell-based; details: SW-620, time 4.0 hrs
T2 sequence (whole entry): T1 sequence (Q8TF76 whole entry)

SW-620 [13] = test: Induction of cell cycle arrest in human SW-620 cells assessed as accumulation at G2M phase at 0.5 to 5 uM incubated for 24 hrs by propidium iodide staining based assay; format: functional; details: dose 0.5-5 µM
SW-620 [14] = test: Synergistic antiproliferative activity against human SW-620 cells assessed as reduction in cell proliferation by measuring combination index in presence of Crizotinib by MTT assay; format: functional
MDA-MB-231 [15] = test: Synergistic antiproliferative activity against human MDA-MB-231 cells assessed as reduction in cell proliferation by measuring combination index in presence of Elesclomol by MTT assay; format: functional
HCT-116 [16] = test: Antiproliferative activity against human HCT-116 cells assessed as reduction in cell proliferation by CellTiter-Glo luminescent cell viability assay; format: functional
BXPC-3 [17] = test: Synergistic antiproliferative activity against human BXPC-3 cells assessed as reduction in cell proliferation by measuring combination index in presence of Elesclomol by MTT assay; format: functional
MOLM-13 = test: Antiproliferative activity against human MOLM-13 cells assessed as reduction in cell proliferation by CellTiter-Glo luminescent cell viability assay; format: functional; details: Homo sapiens, MOLM-13
SK-MEL19 [18] = test: Synergistic antiproliferative activity against human SK-MEL19 cells assessed as reduction in cell proliferation by measuring combination index in presence of Elesclomol by MTT assay; format: functional
DU-145 [19] = test: Synergistic antiproliferative activity against human DU-145 cells assessed as reduction in cell proliferation by measuring combination index in presence of Taxol by MTT assay; format: functional
SW-620 [20] = test: Synergistic antiproliferative activity against human SW-620 cells assessed as reduction in cell proliferation by measuring combination index in presence of Elesclomol by MTT assay; format: functional
SW-620 [21] = test: Antiproliferative activity against human SW-620 cells assessed as reduction in cell proliferation by CellTiter-Glo luminescent cell viability assay; format: functional; details: Homo sapiens, SW-620
Mus musculus [22] = test: Inhibition of CDK8 in athymic nude mouse xenografted with human SW-620 cells assessed as reduction in STAT1 S727 phosphorylation 5 mg/kg, po administered as single dose after 1 hr by Western blot analysis; format: functional, organism-based
HCT-116 [23] = test: Synergistic antiproliferative activity against human HCT-116 cells assessed as reduction in cell proliferation by measuring combination index in presence of Ali-sertib by MTT assay; format: functional
SW-620 [24] = test: Synergistic antiproliferative activity against human SW-620 cells assessed as reduction in cell proliferation by measuring combination index in presence of taxol by MTT assay; format: functional
BXPC-3 [25] = test: Antiproliferative activity against human BXPC-3 cells assessed as reduction in cell proliferation by CellTiter-Glo luminescent cell viability assay; format: functional
A549 [26] = test: Antiproliferative activity against human A549 cells assessed as reduction in cell proliferation by CellTiter-Glo luminescent cell viability assay; format: functional
SK-MEL19 [27] = test: Synergistic antiproliferative activity against human SK-MEL19 cells assessed as reduction in cell proliferation by measuring combination index in presence of Crizotinib by MTT assay; format: functional
HCT-116 [28] = test: Synergistic antiproliferative activity against human HCT-116 cells assessed as reduction in cell proliferation by measuring combination index in presence of taxol by MTT assay; format: functional
MDA-MB-231 [29] = test: Antiproliferative activity against human MDA-MB-231 cells assessed as reduction in cell proliferation by CellTiter-Glo luminescent cell viability assay; format: functional; details: Homo sapiens, MDA-MB-231
BXPC-3 [30] = test: Synergistic antiproliferative activity against human BXPC-3 cells assessed as reduction in cell proliferation by measuring combination index in presence of crizotinib by MTT assay; format: functional
[31] = biological target: Cyclin-dependent kinase 8 (Homo sapiens, UniProt P49336); test: Inhibition of CDK8 in human SW-620 cells assessed as reduction in STAT1 S727 phosphorylation pre-incubated for 1 hr before IFNgamma stimulation for 3 hrs by Western blot analysis; format: cell-based
SW-620 [32] = test: Synergistic antiproliferative activity against human SW-620 cells assessed as reduction in cell proliferation by measuring combination index in presence of ABT-751 by MTT assay; format: functional
HCT-116 [33] = test: Synergistic antiproliferative activity against human HCT-116 cells assessed as reduction in cell proliferation by measuring combination index in presence of crizotinib by MTT assay; format: functional

Cyclin-dependent kinase 8, sequence (P49336 whole entry): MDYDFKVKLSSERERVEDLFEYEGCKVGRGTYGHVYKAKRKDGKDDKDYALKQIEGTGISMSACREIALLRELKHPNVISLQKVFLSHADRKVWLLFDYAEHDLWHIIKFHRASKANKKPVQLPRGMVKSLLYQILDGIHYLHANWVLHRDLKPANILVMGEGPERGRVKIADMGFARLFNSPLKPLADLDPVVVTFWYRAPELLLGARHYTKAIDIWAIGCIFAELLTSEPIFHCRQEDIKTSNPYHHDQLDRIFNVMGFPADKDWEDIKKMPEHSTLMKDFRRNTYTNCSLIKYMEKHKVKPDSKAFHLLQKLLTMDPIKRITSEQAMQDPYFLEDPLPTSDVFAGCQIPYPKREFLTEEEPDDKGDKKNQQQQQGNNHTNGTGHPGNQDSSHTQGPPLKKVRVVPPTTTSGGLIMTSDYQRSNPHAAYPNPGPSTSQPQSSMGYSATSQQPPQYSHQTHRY

GI50 (DU-145 [1]): 5000 nM | IC50 [5]: 1.6 nM | EC50 (SW-620 [8]): 51 nM | GI50 (MV4-11): 115 nM | GI50 (SK-MEL19 [9]): 1250 nM | INH [12]: 1.5 10^-8mol/L | GI50 (HCT-116 [16]): 5000 nM | GI50 (MOLM-13): 349 nM | GI50 (SW-620 [21]): 3390 nM | GI50 (BXPC-3 [25]): 5000 nM | GI50 (A549 [26]): 5000 nM | GI50 (MDA-MB-231 [29]): 3500 nM | IC50 [31]: 1.5 nM
Compound: CCn1c(C(N)=O)cc2c1-c1ccncc1OC2(C)C
CI (DU-145 [2]): 0.44 | Activity (SW-620 [3]): Dose-dependent effect | CI (A549 [4]): 0.63 | inhibition (Mus musculus [6]): Active | CI (DU-145 [7]): 0.65 | CI (SW-620 [10]): 0.52 | CI (SW-620 [11]): 0.53 | Activity (SW-620 [13]): Dose-dependent effect | CI (SW-620 [14]): 0.65 | CI (MDA-MB-231 [15]): 0.59 | CI (BXPC-3 [17]): 0.25 | CI (SK-MEL19 [18]): 0.49 | CI (DU-145 [19]): 0.21 | CI (SW-620 [20]): 0.05 | inhibition (Mus musculus [22]): Active | CI (HCT-116 [23]): 0.64 | CI (SW-620 [24]): 0.28 | CI (SK-MEL19 [27]): 0.55 | CI (HCT-116 [28]): 0.63 | CI (BXPC-3 [30]): 0.72 | CI (SW-620 [32]): 0.18 | CI (HCT-116 [33]): 0.58
